Laboratory results reported in US20190367448A1, “TREATMENT OF SLEEP-WAKE DISORDERS” (SK Biopharmaceuticals Co., Ltd., priority 2005, published 2019).

Tested on: male adult Sprague Dawley rats
Experiment: Sleep-wake organization in rats, polysomnographic recording (EEG, EOG, EMG, body movement) for 16 hours after acute i.p. administration
Type: in vivo, rat
Settings: rats; for Duration (min) Active wake / Duration (min) Deep sleep / Duration (min) Light sleep / Duration (min) Passive wake / Duration (min) REM sleep / Duration (min) intermediate stage / ISWS/TST (%) / Latency (min) ISWS / Latency (min) REM sleep / Latency (min) dSWS / REMS/TST (%) / Shifts (number) Shift from ISWS to AW / Shifts (number) Shift from ISWS to PW / Shifts (number) Shift from REMS to AW / Shifts (number) Shift from REMS to PW / Shifts (number) Shift from dSWS to AW / Shifts (number) Shift from dSWS to PW / Total sleep time TST / dSWS/TST (%): 16 hours recording period; for change in number of active wakefulness epochs / change in number of deep sleep epochs / change in number of light sleep epochs / change in duration of active wakefulness / change in time spent in deep sleep / change in time spent in light sleep / change in number of REM sleep epochs / change in duration of REM sleep: 10 mg/kg
[1] = highest dose tested, 16 hours recording

## COC(=O)[C@H]1[C@@H](OC(=O)c2ccccc2)C[C@@H]2CC[C@H]1N2C [Cocaine, cocaine]
1 mg/kg i.p.
  Duration (min) Active wake: 331.5 min
  Duration (min) Deep sleep: 162.9 min
  Duration (min) Light sleep: 293.2 min
  Duration (min) Passive wake: 69.8 min
  Duration (min) REM sleep: 84.2 min
  Duration (min) intermediate stage: 6.7 min
  ISWS/TST (%): 51.8 ± 4.5%
  Latency (min) ISWS: 69.9 ± 51.2 min
  Latency (min) REM sleep: 74.3 ± 12.1 min
  Latency (min) dSWS: 79.3 ± 26.7 min
  REMS/TST (%): 15.4 ± 0.9%
  Shifts (number) Shift from ISWS to AW: 184.1 number
  Shifts (number) Shift from ISWS to PW: 128.6 number
  Shifts (number) Shift from REMS to AW: 74.5 number
  Shifts (number) Shift from REMS to PW: 17.0 number
  Shifts (number) Shift from dSWS to AW: 10.1 number
  Shifts (number) Shift from dSWS to PW: 66.6 number
  Total sleep time TST: 547.0 ± 51.5 min
  dSWS/TST (%): 31.2 ± 4.8%
3 mg/kg i.p.
  Duration (min) Active wake: 324.8 min
  Duration (min) Deep sleep: 172.6 min
  Duration (min) Light sleep: 303.2 min
  Duration (min) Passive wake: 66.7 min
  Duration (min) REM sleep: 76.7 min
  Duration (min) intermediate stage: 5.7 min
  ISWS/TST (%): 53.8 ± 6.3%
  Latency (min) ISWS: 41.5 ± 9.2 min
  Latency (min) REM sleep: 112.0 ± 12.2 min
  Latency (min) dSWS: 68.6 ± 7.6 min
  REMS/TST (%): 13.8 ± 1.1%
  Shifts (number) Shift from ISWS to AW: 218.5 number
  Shifts (number) Shift from ISWS to PW: 142.2 number
  Shifts (number) Shift from REMS to AW: 56.0 number
  Shifts (number) Shift from REMS to PW: 10.7 number
  Shifts (number) Shift from dSWS to AW: 10.2 number
  Shifts (number) Shift from dSWS to PW: 64.5 number
  Total sleep time TST: 558.2 ± 21.2 min
  dSWS/TST (%): 31.4 ± 6.1%
10 mg/kg i.p.
  Duration (min) Active wake: 347.3 min
  Duration (min) Deep sleep: 171.9 min
  Duration (min) Light sleep: 294.6 min
  Duration (min) Passive wake: 55.0 min
  Duration (min) REM sleep: 74.7 min
  Duration (min) intermediate stage: 6.3 min
  ISWS/TST (%): 53.8 ± 4.0%
  Latency (min) ISWS: 101.8 ± 6.9 min
  Latency (min) REM sleep: 192.1 ± 18.5 min
  Latency (min) dSWS: 138.8 ± 8.7 min
  REMS/TST (%): 13.8 ± 1.5%
  Shifts (number) Shift from ISWS to AW: 201.2 number
  Shifts (number) Shift from ISWS to PW: 132.6 number
  Shifts (number) Shift from REMS to AW: 52.3 number
  Shifts (number) Shift from REMS to PW: 9.2 number
  Shifts (number) Shift from dSWS to AW: 10.4 number
  Shifts (number) Shift from dSWS to PW: 37.6 number
  Total sleep time TST: 547.6 ± 18.2 min
  dSWS/TST (%): 31.3 ± 4.2%
0.5 h
  change in number of active wakefulness epochs: +111%
  change in number of deep sleep epochs: −100%
  change in number of light sleep epochs: −100%
0.5 h after treatment
  change in duration of active wakefulness: +111%
  change in time spent in deep sleep: 90%
  change in time spent in light sleep: −100%
0.5 hr
  change in number of REM sleep epochs: −100%
0.5 hr after administration
  change in duration of REM sleep: −100%
1 h
  change in number of active wakefulness epochs: +500%
1 h after treatment
  change in duration of active wakefulness: +500%
  change in time spent in deep sleep: −100%
  change in time spent in light sleep: −99%
1 hr
  change in number of REM sleep epochs: −100%
  change in number of deep sleep epochs: −100%
  change in number of light sleep epochs: −99%
1 hr after administration
  change in duration of REM sleep: −100%
1.5 h
  change in number of deep sleep epochs: −100%
  change in number of light sleep epochs: −87%
1.5 hr
  change in number of REM sleep epochs: −100%
  change in number of active wakefulness epochs: +312%
1.5 hr after administration
  change in duration of REM sleep: −100%
1.5 hr after treatment
  change in duration of active wakefulness: +312%
  change in time spent in deep sleep: −99%
  change in time spent in light sleep: −87%
2 h
  change in number of active wakefulness epochs: +119%
2 h after treatment
  change in duration of active wakefulness: +120%
  change in time spent in deep sleep: −70%
  change in time spent in light sleep: −25%
2 hr
  change in number of REM sleep epochs: −87%
  change in number of deep sleep epochs: −38%
  change in number of light sleep epochs: −22%
2 hr after administration
  change in duration of REM sleep: −87%
2.5 hr
  change in number of REM sleep epochs: −47%
  change in number of active wakefulness epochs: +166%
2.5 hr after administration
  change in duration of REM sleep: −47%
2.5 hr after treatment
  change in duration of active wakefulness: +166%
3 hr
  change in number of REM sleep epochs: −78%
  change in number of active wakefulness epochs: +77%
3 hr after administration
  change in duration of REM sleep: −78%
3 hr after treatment
  change in duration of active wakefulness: +77%
[1]
  decrease in total time spent in REM sleep: −18%
  increase in total duration of active wakefulness: +14%
